From PubChem BioAssay AID330 (DTP/NCI, 2004) come the findings set out here.

“And” between values parts separate entries of the source, which are not always exact repeats. Equal entries are not always repeated. Inconclusive results and toxic doses are left out.

For the assay, the system named is P388 leukemia ip, CD2F1 mice, survival T/C. The assay can be described thus: NCI In Vivo Anticancer Drug Screen. Data for tumor model P388 Leukemia (intraperitoneal) in CD2F1 (CDF1) mice. The note with it: endpoint: median survival time, higher = longer survival. An outline of the steps:
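Mice carrying the transplanted tumor received test compound or vehicle. Survival was recorded in each group, and the value is the treated-group measurement divided by that of the vehicle-treated control group.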

Setting [1] is: dose: 25.0 mg/kg/injection, schedule: Q01DX009 (ip), vehicle: saline.
[2] abbreviates: dose: 50.0 mg/kg/injection, schedule: Q01DX009 (ip), vehicle: saline.
The mark [3] stands for this setting: dose: 100.0 mg/kg/injection, schedule: Q01DX009 (ip), vehicle: saline.
Where [4] appears, read: dose: 12.5 mg/kg/injection, schedule: Q01DX009 (ip), vehicle: saline.
Setting [5] is: dose: 50.0 mg/kg/injection, schedule: Q01DX009 (ip), vehicle: saline with Tween-80.
Setting [6] is: dose: 100.0 mg/kg/injection, schedule: Q01DX009 (ip), vehicle: saline with Tween-80.
The mark [7] stands for this setting: dose: 50.0 mg/kg/injection, schedule: Q01DX005 (ip), vehicle: saline with Tween-80.
[8] abbreviates: dose: 100.0 mg/kg/injection, schedule: Q01DX005 (ip), vehicle: saline with Tween-80.
The mark [9] stands for this setting: dose: 200.0 mg/kg/injection, schedule: Q01DX005 (ip), vehicle: saline with Tween-80.

Regarding `CN1[C@@H](CC(=O)c2ccccc2)CCC[C@H]1CC(=O)c1ccccc1`, the T/C was 95 % of control under setting [1], 103 % of control under setting [2] and 102 % of control under setting [3].

For the compound `COc1ccc(OC)c(NC(=O)Nc2nccs2)c1`, the T/C reads like this: (dose: 22.5 mg/kg/injection, schedule: Q01DX009 (ip), vehicle: Klucel (hydroxypropylcellulose) (HPC)) 99 % of control; (dose: 45.0 mg/kg/injection, schedule: Q01DX009 (ip), vehicle: Klucel (hydroxypropylcellulose) (HPC)) 100 % of control; (dose: 90.0 mg/kg/injection, schedule: Q01DX009 (ip), vehicle: Klucel (hydroxypropylcellulose) (HPC)) 97 % of control; (dose: 180.0 mg/kg/injection, schedule: Q01DX009 (ip), vehicle: Klucel (hydroxypropylcellulose) (HPC)) 92 % of control.

As to `COc1cccc2c1C(=O)c1c(O)c3c(c(O)c1C2=O)C[C@@](O)(c1csc(-c2ccncc2)n1)C[C@@H]3OC1CC(N)C(O)C(C)O1` (stereo not given in full), the T/C runs as follows: (dose: 6.25 mg/kg/injection, schedule: Q04DX003 (ip), vehicle: water) 118 % of control; (dose: 12.5 mg/kg/injection, schedule: Q04DX003 (ip), vehicle: water) 122 % of control; (dose: 25.0 mg/kg/injection, schedule: Q04DX003 (ip), vehicle: water) 100 % of control; (dose: 50.0 mg/kg/injection, schedule: Q04DX003 (ip), vehicle: water) 118 % of control; (dose: 200.0 mg/kg/injection, schedule: Q04DX003 (ip), vehicle: water) 92 % of control.

Consider `COC(=O)CNC(=O)C(Cc1c[nH]c2ccccc12)NC(=O)OC(C)(C)C` (stereo not given), for which the T/C runs as follows: (dose: 12.5 mg/kg/injection, schedule: Q01DX009 (ip), vehicle: other) 96 % of control; (dose: 25.0 mg/kg/injection, schedule: Q01DX009 (ip), vehicle: other) 89 % of control; (dose: 50.0 mg/kg/injection, schedule: Q01DX009 (ip), vehicle: other) 89 % of control; (dose: 100.0 mg/kg/injection, schedule: Q01DX009 (ip), vehicle: other) 90 % of control; (dose: 200.0 mg/kg/injection, schedule: Q01DX009 (ip), vehicle: other) 97 % of control.

As to `Cc1nc(Cl)c(C)c(=O)[nH]1`, the T/C was 165 % of control under setting [2] and 166 % of control under setting [3].

On to `O=C1OC(=O)[C@H]2[C@@H]1[C@H]1C=C[C@@H]2OC1=O`, for which the T/C runs as follows: (dose: 12.5 mg/kg/injection, schedule: Q01DX009 (ip), vehicle: saline with Tween-80) 123 % of control; under setting [4], 103 % of control; (dose: 25.0 mg/kg/injection, schedule: Q01DX009 (ip), vehicle: saline with Tween-80) 108 % of control; under setting [1], 100 % of control; under setting [5], 105 % of control; under setting [2], 99 % of control and 92 % of control. For the same compound, the T/C was 101 % of control under setting [6]; 100 % of control under setting [3]; 98 % of control (dose: 200.0 mg/kg/injection, schedule: Q01DX009 (ip), vehicle: saline).

For `CCN1C(=O)C(=O)c2ccccc21`, the T/C (dose: 18.75 mg/kg/injection, schedule: Q01DX009 (ip), vehicle: saline with Tween-80) was 96 % of control; the T/C (dose: 18.75 mg/kg/injection, schedule: Q01DX009 (ip), vehicle: saline) is 107 % of control; the T/C (dose: 37.5 mg/kg/injection, schedule: Q01DX009 (ip), vehicle: saline with Tween-80) was 96 % of control; the T/C (dose: 37.5 mg/kg/injection, schedule: Q01DX009 (ip), vehicle: saline) was 102 % of control and 110 % of control; the T/C (dose: 75.0 mg/kg/injection, schedule: Q01DX009 (ip), vehicle: saline with Tween-80) was 100 % of control; the T/C (dose: 75.0 mg/kg/injection, schedule: Q01DX009 (ip), vehicle: saline) was 104 % of control and 105 % of control.

For `NC(CSSCC(NC(=O)c1ccccc1)C(=O)O)C(=O)O` (stereo not given), the T/C was 103 % of control and 99 % of control (dose: 50.0 mg/kg/injection, schedule: Q01DX005 (ip), vehicle: Klucel (hydroxypropylcellulose) (HPC)); 106 % of control and 96 % of control (dose: 100.0 mg/kg/injection, schedule: Q01DX005 (ip), vehicle: Klucel (hydroxypropylcellulose) (HPC)); 100 % of control and 101 % of control and 111 % of control (dose: 200.0 mg/kg/injection, schedule: Q01DX005 (ip), vehicle: Klucel (hydroxypropylcellulose) (HPC)).

Take `CCc1nc(N)nc(N)c1-c1ccc(N2CCOCC2)c(N=[N+]=[N-])c1`: the T/C is, setting by setting: (dose: 6.25 mg/kg/injection, schedule: Q01DX005 (ip), vehicle: Klucel (hydroxypropylcellulose) (HPC)) 101 % of control; (dose: 12.5 mg/kg/injection, schedule: Q01DX005 (ip), vehicle: Klucel (hydroxypropylcellulose) (HPC)) 100 % of control; (dose: 25.0 mg/kg/injection, schedule: Q01DX005 (ip), vehicle: Klucel (hydroxypropylcellulose) (HPC)) 97 % of control.

For the compound `C[Si](Cl)(CCl)CCl`, the T/C is, setting by setting: under setting [5], 118 % of control; under setting [6], 116 % of control; (dose: 200.0 mg/kg/injection, schedule: Q01DX009 (ip), vehicle: saline with Tween-80) 118 % of control.

Take `CC1=CC(O)C(O)C2(C)C1CC(=O)C13COC4OC(CC1C4=O)C(O)C32` (stereo not given): the T/C is 102 % of control (dose: 0.5 mg/kg/injection, schedule: Q01DX009 (ip), vehicle: saline); 103 % of control (dose: 1.0 mg/kg/injection, schedule: Q01DX009 (ip), vehicle: saline); 96 % of control and 97 % of control (dose: 2.0 mg/kg/injection, schedule: Q01DX009 (ip), vehicle: Klucel (hydroxypropylcellulose) (HPC)); 107 % of control (dose: 2.0 mg/kg/injection, schedule: Q01DX009 (ip), vehicle: saline); 100 % of control and 111 % of control and 92 % of control (dose: 4.0 mg/kg/injection, schedule: Q01DX009 (ip), vehicle: Klucel (hydroxypropylcellulose) (HPC)); 102 % of control (dose: 4.0 mg/kg/injection, schedule: Q01DX009 (ip), vehicle: saline). For the same compound, the T/C (dose: 8.0 mg/kg/injection, schedule: Q01DX009 (ip), vehicle: Klucel (hydroxypropylcellulose) (HPC)) is 98 % of control and 94 % of control; the T/C (dose: 16.0 mg/kg/injection, schedule: Q01DX009 (ip), vehicle: Klucel (hydroxypropylcellulose) (HPC)) was 92 % of control; the T/C (dose: 32.0 mg/kg/injection, schedule: Q01DX009 (ip), vehicle: Klucel (hydroxypropylcellulose) (HPC)) is 86 % of control.

`CNC(=O)c1ccc[n+](C2OC(COC(C)=O)C(OC(C)=O)C2OC(C)=O)c1` (stereo not given): the T/C is 100 % of control under setting [7], 97 % of control under setting [8] and 91 % of control under setting [9].

On to `ClC1(Cl)C(=C=C2C3CC4CC(C3)CC2C4)C12C1CC3CC(C1)CC2C3` (stereo not given), for which the T/C by setting is: (dose: 25.0 mg/kg/injection, schedule: Q01DX009 (ip), vehicle: Klucel (hydroxypropylcellulose) (HPC)) 100 % of control; (dose: 50.0 mg/kg/injection, schedule: Q01DX008 (ip), vehicle: Klucel (hydroxypropylcellulose) (HPC)) 101 % of control; (dose: 100.0 mg/kg/injection, schedule: Q01DX008 (ip), vehicle: Klucel (hydroxypropylcellulose) (HPC)) 101 % of control; (dose: 100.0 mg/kg/injection, schedule: Q01DX009 (ip), vehicle: Klucel (hydroxypropylcellulose) (HPC)) 94 % of control; (dose: 200.0 mg/kg/injection, schedule: Q01DX008 (ip), vehicle: Klucel (hydroxypropylcellulose) (HPC)) 87 % of control.

On to `CCOC(=O)c1nc(C)[nH]c(=O)c1C`, for which the T/C (dose: 8.0 mg/kg/injection, schedule: Q01DX009 (ip), vehicle: water) is 100 % of control; the T/C (dose: 16.0 mg/kg/injection, schedule: Q01DX009 (ip), vehicle: water) was 95 % of control; the T/C (dose: 32.0 mg/kg/injection, schedule: Q01DX009 (ip), vehicle: water) was 100 % of control; the T/C (dose: 64.0 mg/kg/injection, schedule: Q01DX009 (ip), vehicle: water) is 100 % of control; the T/C (dose: 128.0 mg/kg/injection, schedule: Q01DX009 (ip), vehicle: water) was 98 % of control.

For the compound `COCCN1CC(=O)N2Cc3ccccc3CN2C(=O)C1`, the T/C is 107 % of control (dose: 12.5 mg/kg/injection, schedule: Q01DX005 (ip), vehicle: saline with Tween-80); 105 % of control (dose: 25.0 mg/kg/injection, schedule: Q01DX005 (ip), vehicle: saline with Tween-80); 100 % of control and 101 % of control under setting [7]; 101 % of control under setting [9].

As to `CCCCCCCCCCCCCCCC[N+]1(CC)CCOCC1`, the T/C by setting is: (dose: 1.56 mg/kg/injection, schedule: Q01DX009 (ip), vehicle: saline) 105 % of control and 100 % of control; (dose: 3.12 mg/kg/injection, schedule: Q01DX009 (ip), vehicle: saline) 99 % of control; under setting [4], 115 % of control and 105 % of control.

In the case of `CC1(C)OC2OCCC(N=[N+]=[N-])C2O1` (stereo not given), the T/C reads like this: under setting [7], 96 % of control; under setting [8], 96 % of control; under setting [9], 94 % of control.
